“Also recorded” adds a separate entry of the source.
Tested on: dermal papilla cell (DP)
Test: 3D spheroid (hanging drop) culture model of dermal papilla cells
Assay type: cell-based
Conditions: 3D spheroid culture
Method: FIG. 1: 3D hanging drop culture of DPCs. […] After spheroid formation is complete, the samples are transferred into a 96 well plate for further cultivation and drug exposure. […] (A) Representative images of spheroids stained for newly synthesized cells were taken after drug exposure for 12 hours (left column) and 24 hours (right column) respectively. Scale bars: 200 μm.

Compound: Cc1c(O)c(=O)ccn1C [Deferiprone, 3-hydroxy-1,2-dimethylpyridin-4(1H)-one]
- DP cell migration (radius of migration around the spheroids) (after 24 hours): without impeding; also recorded: unchanged
- DP cell proliferation (synthesis of new daughter cells) (drug exposure for 12 hours and 24 hours): significantly increases; also recorded: significantly enhanced

Reference: patent US11969417B2, “Topical formulation for use in alopecia” (TOMORROWLABS GMBH, priority 2019, dated 2024)
